Measurements: patent US10681908B2, “Molecules having pesticidal utility, and intermediates, compositions, and processes, related thereto” (Dow AgroSciences LLC, priority 2016, dated 2020)

What was measured:
Type in all cases: in vivo
[1] = tested on: Yellow Fever Mosquito (Aedes aegypti, AEDSAE); conditions: about 1 day-old larvae, 3 days, room temperature, scored on mortality
Method: Example C: Bioassays on Yellow Fever Mosqurro (Aedes aegypti, AEDSAE) (“YFM”)
Certain molecules disclosed in this document were tested against YFM using procedures described in the following paragraph. In the reporting of the results, the “GPA & YFM Rating Table” was used (See Table Section).
Master plates containing 400 μg of a molecule dissolved in 100 μL of dimethyl sulfoxide (DMSO) (equivalent to a 4000 ppm solution) are used. A master plate of assembled molecules contains 15 μL per well. To this plate, 135 μL of a 90:10 water:acetone mixture is added to each well. A robot (Biomek® NXP Laboratory Automation Workstation) is programmed to dispense 15 μL aspirations from the master plate into an empty 96-well shallow plate (“daughter” plate). There are 6 reps (“daughter” plates) created per master. The created daughter plates are then immediately infested with YFM larvae.
The day before plates are to be treated, mosquito eggs are placed in Millipore water containing liver powder to begin hatching (4 g. into 400 mL). After the daughter plates are created using the robot, they are infested with 220 μL of the liver powder/larval mosquito mixture (about 1 day-old larvae). After plates are infested with mosquito larvae, a non-evaporative lid is used to cover the plate to reduce drying. Plates are held at room temperature for 3 days prior to grading. After 3 days, each well is observed and scored based on mortality. The results are indicated in the table entitled “Table ABC: Biological Results” (See Table Section).

[2] = tested on: Cabbage Looper (Trichoplusia ni, TRIPNI); assay: Bioassay on Cabbage Looper (CL), 128-well diet tray assay; conditions: 168 h, 50 μg/cm^2 on artificial diet, second instar larvae, five to seven days, 25° C., read-out: CL % Control (or Mortality) rating
Procedure, shortened: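 Percent mortality, averaged over eight wells, scored after five to seven days at 25° C. under 14:10 light-dark. Each well held 1–5 second-instar larvae on artificial diet treated with 50 μg/cm^2 test molecule applied in 90:10 acetone-water and dried.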

[3] = tested on: Beet Armyworm (Spodoptera exigua, LAPHEG); assay: Bioassay on Beet Armyworm (BAW), 128-well diet tray assay; conditions: 168 h, 50 μg/cm^2 on artificial diet, second instar larvae, five to seven days, 25° C., read-out: BAW % Control (or Mortality) rating
Procedure, shortened: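 Mortality of second-instar larvae (one to five per well) was scored after five to seven days at 25 °C under 14:10 light-dark and averaged across eight wells. Each well's diet had received 50 μg/cm^2 test molecule from a 90:10 acetone-water solution, allowed to dry before infestation.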

Structure (SMILES) | YFM % Control (or Mortality) rating [1] | mortality at 50 µg/cm2 [2] [%] | mortality at 50 µg/cm2 [3] [%]
CC[S+]([O-])C[C@@H](C)NC(=O)c1ccc(/C(F)=C/C(c2cc(C)c(Cl)c(C)c2)C(F)(F)F)cc1C(F)(F)F (stereo partly drawn) [F44, 4-((Z)-3-(4-Chloro-3,5-dimethylphenyl)-1,4,4,4-tetrafluorobut-1-en-1-yl)-N-((2R)-1-(ethylsulfinyl)propan-2-yl)-2-(trifluoromethyl)benzamide] | A (80-100) | 50 to 100 | 50 to 100
CCS(=O)(=O)C[C@@H](C)NC(=O)c1ccc(/C(F)=C/C(c2cc(Cl)cc(Cl)c2)C(F)(F)F)cc1C(F)(F)F (stereo partly drawn) [F45, 4-((Z)-3-(3,5-Dichlorophenyl)-1,4,4,4-tetrafluorobut-1-en-1-yl)-N—((R)-1-(ethylsulfonyl)propan-2-yl)-2-(trifluoromethyl)benzamide] | A (80-100) | 50 to 100 | 50 to 100
O=C(NCCS(=O)(=O)CC(F)(F)F)c1ccc(/C(F)=C/C(c2cc(Cl)c(Cl)c(Cl)c2)C(F)(F)F)cc1C(F)(F)F (stereo not drawn) [F49, (Z)-4-(1,4,4,4-tetrafluoro-3-(3,4,5-trichlorophenyl)but-1-en-1-yl)-N-(2-((2,2,2-trifluoroethyl)sulfonyl)ethyl)-2-(trifluoromethyl)benzamide] | A (80-100) | 50 to 100 | 50 to 100
Cc1cc(C(/C=C(\F)c2ccc(C(=O)N[C@H](C)CSCC(F)(F)F)c(C(F)(F)F)c2)C(F)(F)F)cc(C)c1Cl (stereo partly drawn) [F52, 4-((Z)-3-(4-Chloro-3,5-dimethylphenyl)-1,4,4,4-tetrafluorobut-1-en-1-yl)-N—((R)-1-((2,2,2-trifluoroethyl)thio)propan-2-yl)-2-(trifluoromethyl)benzamide] | D (No activity noticed in this bioassay) | 50 to 100 | 50 to 100
CCS(=O)(=O)C[C@@H](C)NC(=O)c1ccc(/C(F)=C/C(c2cc(C)c(Cl)c(C)c2)C(F)(F)F)cc1C(F)(F)F (stereo partly drawn) [F53, 4-((Z)-3-(4-Chloro-3,5-dimethylphenyl)-1,4,4,4-tetrafluorobut-1-en-1-yl)-N—((R)-1-(ethylsulfonyl)propan-2-yl)-2-(trifluoromethyl)benzamide] | D (No activity noticed in this bioassay) | 50 to 100 | 50 to 100
C[C@H](CS(=O)(=O)CC(F)(F)F)NC(=O)c1ccc(/C(F)=C/C(c2ccc(Br)c(Br)c2)C(F)(F)F)cc1C(F)(F)F (stereo partly drawn) [F54, 4-((Z)-3-(3,4-Dibromophenyl)-1,4,4,4-tetrafluorobut-1-en-1-yl)-N—((R)-1-((2,2,2-trifluoroethyl)sulfonyl)propan-2-yl)-2-(trifluoromethyl)benzamide] | A (80-100) | 50 to 100 | 50 to 100
CCS(=O)(=O)C[C@@H](C)NC(=O)c1ccc(/C(F)=C/C(c2cc(Br)c(Cl)c(Br)c2)C(F)(F)F)cc1C(F)(F)F (stereo partly drawn) [F55, 4-((Z)-3-(3,5-Dibromo-4-chlorophenyl)-1,4,4,4-tetrafluorobut-1-en-1-yl)-N—((R)-1-(ethylsulfonyl)propan-2-yl)-2-(trifluoromethyl)benzamide] | A (80-100) | 50 to 100 | 50 to 100
C[C@H](CS(=O)(=O)CC(F)(F)F)NC(=O)c1ccc(/C(F)=C/C(c2cc(Cl)cc(Br)c2)C(F)(F)F)cc1C(F)(F)F (stereo partly drawn) [F65] | B (More than 0-Less than 80) | 50 to 100 | 50 to 100
Cc1cc(C(/C=C(\F)c2ccc(C(=O)N[C@H](C)CS(=O)(=O)CC(F)(F)F)c(C(F)(F)F)c2)C(F)(F)F)cc(Cl)c1Cl (stereo partly drawn) [F78, 4-((Z)-3-(3,4-Dichloro-5-methylphenyl)-1,4,4,4-tetrafluorobut-1-en-1-yl)-N—((R)-1-((2,2,2-trifluoroethyl)sulfonyl)propan-2-yl)-2-(trifluoromethyl)benzamide] | B (More than 0-Less than 80) | 50 to 100 | 50 to 100
C[C@H](CS(=O)(=O)CC(F)(F)F)NC(=O)c1ccc(/C(F)=C/C(c2ccc(C(F)(F)F)c(Cl)c2)C(F)(F)F)cc1C(F)(F)F (stereo partly drawn) [F91] | D (No activity noticed in this bioassay) | 50 to 100 | 50 to 100
O=C(NCCSC(F)(F)F)c1ccc(/C(F)=C/C(c2cc(Cl)c(Cl)c(Cl)c2)C(F)(F)F)cc1C(F)(F)F (stereo not drawn) [F92, (Z)-4-(1,4,4,4-tetrafluoro-3-(3,4,5-trichlorophenyl)but-1-en-1-yl)-2-(trifluoromethyl)-N-(2-((trifluoromethyl)thio)ethyl)benzamide] | B (More than 0-Less than 80) | 50 to 100 | 50 to 100
C[C@H](CS(=O)(=O)CC(F)(F)F)NC(=O)c1ccc(/C(F)=C/C(c2ccc(C(F)(F)F)c(Br)c2)C(F)(F)F)cc1C(F)(F)F (stereo partly drawn) [F95, 4-((Z)-3-(3-Bromo-4-(trifluoromethyl)phenyl)-1,4,4,4-tetrafluorobut-1-en-1-yl)-N—((R)-1-((2,2,2-trifluoroethyl)sulfonyl)propan-2-yl)-2-(trifluoromethyl)benzamide] | A (80-100) | 50 to 100 | 50 to 100
C[C@H](CS(=O)(=O)CC(F)(F)F)NC(=O)c1ccc(/C(F)=C/C(c2cc(Cl)c(Cl)c(Cl)c2)C(F)F)cc1C(F)(F)F (stereo partly drawn) [F98, 4-((Z)-1,4,4-Trifluoro-3-(3,4,5-trichlorophenyl)but-1-en-1-yl)-N—((R)-1-((2,2,2-trifluoroethyl)sulfonyl)propan-2-yl)-2-(trifluoromethyl)benzamide] | A (80-100) | 50 to 100 | 50 to 100
C[C@H](C[S+]([O-])CCF)NC(=O)c1ccc(/C(F)=C/C(c2cc(Cl)c(Cl)c(Cl)c2)C(F)(F)F)cc1C(F)(F)F (stereo partly drawn) [F99, N-((2R)-1-((2-Fluoroethyl)sulfinyl)propan-2-yl)-4-((Z)-1,4,4,4-tetrafluoro-3-(3,4,5-trichlorophenyl)but-1-en-1-yl)-2-(trifluoromethyl)benzamide] | A (80-100) | 50 to 100 | 50 to 100
C[C@H](CSCC(F)(F)F)NC(=O)c1ccc(/C(F)=C/C(c2ccc(F)c(C(F)(F)F)c2)C(F)(F)F)cc1C(F)(F)F (stereo partly drawn) [F102, 4-((Z)-1,4,4,4-Tetrafluoro-3-(4-fluoro-3-(trifluoromethyl)phenyl)but-1-en-1-yl)-N—((R)-1-((2,2,2-trifluoroethyl)thio)propan-2-yl)-2-(trifluoromethyl)benzamide] | A (80-100) | 50 to 100 | 50 to 100
C[C@H](CS(=O)(=O)CC(F)(F)F)NC(=O)c1ccc(/C(F)=C/C(c2cc(F)c(F)c(Cl)c2)C(F)(F)F)cc1C(F)(F)F (stereo partly drawn) [F103, 4-((Z)-3-(3-Chloro-4,5-difluorophenyl)-1,4,4,4-tetrafluorobut-1-en-1-yl)-N—((R)-1-((2,2,2-trifluoroethyl)sulfonyl)propan-2-yl)-2-(trifluoromethyl)benzamide] | A (80-100) | 50 to 100 | 50 to 100
C=Cc1c(Cl)cc(C(/C=C(\F)c2ccc(C(=O)N[C@H](C)CS(=O)(=O)CC)c(C(F)(F)F)c2)C(F)(F)F)cc1Cl (stereo partly drawn) [F119, 4-((Z)-3-(3,5-Dichloro-4-vinylphenyl)-1,4,4,4-tetrafluorobut-1-en-1-yl)-N—((R)-1-(ethylsulfonyl)propan-2-yl)-2-(trifluoromethyl)benzamide] | A (80-100) | 50 to 100 | 50 to 100
C[C@H](C[S+]([O-])CCC(F)(F)F)NC(=O)c1ccc(/C(F)=C/C(c2cc(Cl)c(Cl)c(Cl)c2)C(F)(F)F)cc1C(F)(F)F (stereo partly drawn) [F121, 4-((Z)-1,4,4,4-Tetrafluoro-3-(3,4,5-trichlorophenyl)but-1-en-1-yl)-2-(trifluoromethyl)-N-((2R)-1-((3,3,3-trifluoropropyl)sulfinyl)propan-2-yl)benzamide] | A (80-100) | 50 to 100 | 50 to 100
O=C(NCCSCCF)c1ccc(/C(F)=C/C(c2cc(Cl)c(Cl)c(Cl)c2)C(F)(F)F)cc1C(F)(F)F (stereo not drawn) [F125, (Z)—N-(2-((2-Fluoroethyl)thio)ethyl)-4-(1,4,4,4-tetrafluoro-3-(3,4,5-trichlorophenyl)but-1-en-1-yl)-2-(trifluoromethyl)benzamide] | D (No activity noticed in this bioassay) | 50 to 100 | 50 to 100
